Experimental data reported in patent US7538123B2, “Indole derivative having piperidine ring” (Eisai R & D Management Co., Ltd., priority 2004, dated 2009).

Key:
[1] = target: T1, 5-HT1A receptor (Sus scrofa, UniProt A0A4X1UTF5); experiment: Test regarding affinity for serotonin 1A receptor ([3H]MPPF binding inhibition); set-up: species or system swine
T1 construct: from tissue; host or cells: swine hippocampus, membrane fraction
T1 sequence (A0A4X1UTF5 1-422): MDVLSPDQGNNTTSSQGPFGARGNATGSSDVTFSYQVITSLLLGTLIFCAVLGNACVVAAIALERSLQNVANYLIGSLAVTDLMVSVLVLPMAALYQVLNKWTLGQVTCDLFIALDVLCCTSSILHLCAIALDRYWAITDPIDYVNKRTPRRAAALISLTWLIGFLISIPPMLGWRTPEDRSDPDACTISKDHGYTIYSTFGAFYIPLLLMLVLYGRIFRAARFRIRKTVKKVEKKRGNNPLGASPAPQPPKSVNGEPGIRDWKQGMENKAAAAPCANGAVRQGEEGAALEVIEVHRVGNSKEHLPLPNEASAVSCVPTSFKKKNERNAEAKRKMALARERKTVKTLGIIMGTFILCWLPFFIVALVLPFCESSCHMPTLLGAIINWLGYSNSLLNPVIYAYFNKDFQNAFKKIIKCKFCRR
Source text: (1) The affinity of a test substance for a 5-HT1A receptor was examined by an inhibition experiment, in which the inhibitory effect of the test substance against the binding of [^3H]-4-(2′-methoxy)phenyl-1-(2′-(N-2″-pyridinyl)-p-fluorobenzamido)ethyl-piperazine (MPPF) that selectively binds to the 5-HT1A receptor in a swine hippocampal membrane fraction was examined. The 5-HT1A receptor that is a G-protein binding receptor becomes a G-protein binding state with addition of MgCl2. In contrast, it becomes a G-protein non-binding state with addition of guanylylimido diphosphate (Gpp(NH)p). […] Thus, both the affinity of a test substance to the receptor that was in a state of not binding to the G-protein and the affinity of the test substance to the receptor that was in a state of binding to the G-protein were obtained. […]
A mixture (0.5 ml) used for incubation comprised an appropriate amount of the membrane fraction, a test substance with a desired concentration, MgCl2 (final concentration: 10 mM) or Gpp(NH)p (final concentration: 1 mm ), [^3H]MPPF (final concentration: 0.5 nM), dimethyl sulfoxide (final concentration: 1% (v/v)), and a 50 mM Tris-Hcl buffer (pH 7.4). […] Thereafter, radioactivity binding to the receptor was measured with a liquid scintillation counter. Non-specific binding was defined as binding detected in the presence of 10 μM WAY-100,635.

[2] = target: T2, serotonin 1A receptor (Mus musculus, UniProt Q64264); experiment: Antagonistic effect on serotonin 1A receptor agonist-induced hypothermia in mouse; type: in vivo
T2 construct: into the rectum of CD-1 (ICR) male mice (25-45 g); from tissue; host or cells: living CD-1 (ICR) male mice (whole animal)
T2 sequence (Q64264 1-421): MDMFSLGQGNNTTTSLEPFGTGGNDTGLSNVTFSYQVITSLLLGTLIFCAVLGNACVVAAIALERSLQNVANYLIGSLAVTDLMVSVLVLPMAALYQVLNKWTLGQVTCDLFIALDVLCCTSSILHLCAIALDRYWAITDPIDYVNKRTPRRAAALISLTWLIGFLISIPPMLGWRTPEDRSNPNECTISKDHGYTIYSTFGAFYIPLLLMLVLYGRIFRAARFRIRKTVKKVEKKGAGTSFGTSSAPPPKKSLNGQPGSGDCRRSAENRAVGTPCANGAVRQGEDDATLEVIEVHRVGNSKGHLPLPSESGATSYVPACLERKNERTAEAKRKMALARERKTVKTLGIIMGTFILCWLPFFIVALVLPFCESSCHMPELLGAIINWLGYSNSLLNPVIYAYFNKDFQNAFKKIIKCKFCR
Protocol: (1) A thermistor probe was inserted at a depth of approximately 2 cm into the rectum of CD-1 (ICR) male mice (25-45 g), so as to measure the body temperature thereof. Body temperature is decreased by subcutaneous administration of serotonin 1A receptor agonist (8-hydroxy-dipropylaminotetralin) 0.5 mg/kg. Since a serotonin 1A antagonist inhibits such action, the antagonistic effect of a test substance to a serotonin 1A receptor was evaluated using the inhibitory effect of the hypothermia as an index. A test substance was administered 15 minutes before the administration of the serotonin 1A agonist. A serotonin 1A partial agonist alone decreases the body temperature, depending on the degree of the agonistic action thereof. In addition, it has a weak antagonistic effect on 8-hydroxy-dipropylaminotetralin-induced hypothermia. (2) Results

| L/H ratio ([1]; low affinity IC50 divided by high affinity IC50, 1 or smaller = no intrinsic activity, 2 or greater = intrinsic activity) | affinity for 5-HT1A / receptor binding action (in words) [1] | antagonistic effect against the 5-HT1A receptor / pharmacological effect (in words) ([2]; in vivo) | ED50 ([2]; sc, 15 minutes before 8-hydroxy-dipropylaminotetralin 0.5 mg/kg sc, inhibition of hypothermia, CD-1 (ICR) male mice, read-out: ED50) [mg/kg] | SMILES |
| --- | --- | --- | --- | --- |
| 0.7 |  |  |  | COc1cc2c(cc1CCN1CCC(n3ccc4ccc(C(N)=O)cc43)CC1)N(C)C(=O)OC2 [Compound 39, 1-{1-[2-(6-methoxy-methyl-oxo-1,4-dihydro-2H-benz[d][1,3]oxazin-7-yl)ethyl]piperidin-4-yl}-1H-indole-6-carboxamide] |
|  | has affinity | weak | > 1 | NC(=O)c1ccc2ccn(C3CCN(CCc4ccc(F)cc4)CC3)c2c1 [Compound A, reference compound] |
